Columns and labels:
L1210 [1] = assay: Antitumor activity against mouse L1210 cells […] in ip dosed C3H X DBA2 F1 hybrid mouse on day 0 and dosed at LD10 level once daily on days 1 to 5 assessed as increase in life span relative to control; format: functional
Bos taurus = organism: Bos taurus; assay: Displacement of ethidium from calf thymus DNA by fluorimetric method
Mus musculus = assay: Toxicity in ip dosed C3H X DBA2 F1 hybrid mouse […] with mouse L1210 cells on day 0 and dosed once daily on days 1 to 5 measured after 50 days; format: organism-based; details: in vivo, 1200 h
L1210 [2] = assay: Antitumor activity against mouse L1210 cells […] in ip dosed C3H X DBA2 F1 hybrid mouse on day 0 and dosed once daily on days 1 to 5 assessed as increase in life span relative to control; format: functional
[3] = Lipophilic-hydrophilic balance, Rm of the compound by partition chromatography; format: physicochemical
[4] = Displacement of ethidium from poly[d(A-T)]-poly[d(A-T)] DNA by fluorimetric method
[5] = Displacement of ethidium from poly[d(G-C)]-poly[d(G-C)] DNA (unknown origin) by fluorimetric method

| Structure (SMILES) | log(ILSmax) (L1210 [1]) | C50 (Bos taurus) | LD10 (Mus musculus) | D40 (L1210 [2]) | Rm [3] | C50 [4] | C50 [5] |
| --- | --- | --- | --- | --- | --- | --- | --- |
| C[n+]1ccc(Nc2ccc(C(=O)Nc3ccc(Nc4cc[n+](C)c5cc(N)ccc45)cc3)cc2)cc1.Cc1ccc(S(=O)(=O)[O-])cc1.Cc1ccc(S(=O)(=O)[O-])cc1 | 2.34 | 0.43 µM | 25 mg/kg | 1.5 mg/kg | -0.04 | 0.12 µM | 1.04 µM |
| C[n+]1cccc(NC(=O)c2ccc(NC(=O)c3ccc(Nc4c5ccccc5[n+](C)c5ccc(N)cc45)cc3)cc2)c1.[Cl-].[Cl-] | 2.36 | 0.17 µM | 55 mg/kg | 9 mg/kg | 0.44 | 0.09 µM | 0.25 µM |
| C[n+]1cccc(NC(=O)c2ccc(NC(=O)c3ccc(C(=O)Nc4ccc(N/N=N/c5ccc(C(=N)N)cc5)cc4)cc3)cc2)c1.Cc1ccc(S(=O)(=O)O)cc1.Cc1ccc(S(=O)(=O)[O-])cc1 | 2.1 | 0.48 µM | 35 mg/kg | 6 mg/kg | -0.77 | 0.22 µM | 0.64 µM |
| CC[n+]1cccc(NC(=O)c2ccc(NC(=O)c3ccc(NC(=O)c4ccc(C(=O)Nc5ccc[n+](CC)c5)cc4)cc3)cc2)c1.Cc1ccc(S(=O)(=O)[O-])cc1.Cc1ccc(S(=O)(=O)[O-])cc1 | 1.9 | 0.5 µM | 33 mg/kg | 9.1 mg/kg | -0.44 | 0.43 µM | 0.65 µM |
| Cc1c(C(=O)Nc2ccc(C(=O)Nc3ccc[n+](C)c3)cc2)ccc(C(=O)Nc2ccc(C(=O)Nc3ccc[n+](C)c3)cc2)c1C.Cc1ccc(S(=O)(=O)[O-])cc1.Cc1ccc(S(=O)(=O)[O-])cc1 | 1.65 | 6.9 µM | 19 mg/kg | 14.7 mg/kg | 0.47 | 5.4 µM | 12 µM |
| C[n+]1ccc(Nc2ccc(NC(=O)/C=C/c3ccc(/C=C/C(=O)Nc4ccc(Nc5cc[n+](C)cc5)cc4)cc3)cc2)cc1.Cc1ccc(S(=O)(=O)[O-])cc1.Cc1ccc(S(=O)(=O)[O-])cc1 | 1.88 | 0.31 µM | 10 mg/kg | 5.1 mg/kg | -0.7 | 0.11 µM | 0.38 µM |
| CC[n+]1cccc2cc(NC(=O)c3ccc(-c4ccc(-c5ccc(-c6ccc(C(=O)Nc7ccc8c(ccc[n+]8CC)c7)cc6)cc5)cc4)cc3)ccc21.Cc1ccc(S(=O)(=O)[O-])cc1.Cc1ccc(S(=O)(=O)[O-])cc1 | 2.16 | 0.3 µM | 31 mg/kg | 10.5 mg/kg | -0.1 | 0.18 µM | 0.61 µM |
| COc1cc(NC(=O)c2ccc(Nc3cc[n+](C)cc3)cc2)ccc1Nc1cc[n+](C)c2cc(N)ccc12.[Br-].[Br-] | 2.23 | 0.69 µM | 14 mg/kg | 3 mg/kg | 0.14 | 0.15 µM | 1.18 µM |
| C[n+]1cccc(NC(=O)c2ccc(NC(=O)c3ccc(C(=O)Nc4ccc(C(=O)Nc5ccc[n+](C)c5)c5ccccc45)cc3)cc2)c1.Cc1ccc(S(=O)(=O)[O-])cc1.Cc1ccc(S(=O)(=O)[O-])cc1 | 1.65 | 2.2 µM | 75 mg/kg | 72 mg/kg | 0.08 | 2.3 µM | 2.6 µM |
| C[n+]1ccc(-c2ccc(-c3ccc(-c4ccc(NC(=O)c5ccc(C(=O)Nc6ccc(-c7ccc(-c8ccc(-c9cc[n+](C)cc9)cc8)cc7)cc6)cc5)cc4)cc3)cc2)cc1.Cc1ccc(S(=O)(=O)[O-])cc1.Cc1ccc(S(=O)(=O)[O-])cc1 | 2.28 | 0.55 µM | 110 mg/kg | 22 mg/kg | -0.3 | 0.4 µM | 1.15 µM |
| C(=C\c1ccc(-[n+]2ccccc2)cc1)/c1ccc(/C=C/c2ccc(-[n+]3ccccc3)cc2)cc1.Cc1ccc(S(=O)(=O)[O-])cc1.Cc1ccc(S(=O)(=O)[O-])cc1 | 1.95 | 0.76 µM | 7 mg/kg | 1.6 mg/kg | 0.05 | 0.2 µM | 2.1 µM |
| C/C(=N\NC(=N)N)c1ccc(NC(=O)Nc2ccc(Nc3c4ccccc4[n+](C)c4cc(N)ccc34)cc2)cc1.Cl.[Cl-] | 2.55 | 0.13 µM | 22 mg/kg | 0.3 mg/kg | 0.69 | 0.09 µM | 0.2 µM |
| C[n+]1ccc(Nc2ccc(C(=O)Nc3ccc(Nc4cc[n+](C)c5ccccc45)cc3)cc2)cc1.Cc1ccc(S(=O)(=O)[O-])cc1.Cc1ccc(S(=O)(=O)[O-])cc1 | 2.29 | 1.6 µM | 7.5 mg/kg | 2.2 mg/kg | 0.27 | 0.21 µM | 3 µM |
| Br.C/C(=N\NC(=N)N)c1ccc(NC(=O)c2ccc(Nc3cc[n+](C)c4ccc(N)cc34)cc2N)cc1.[Br-] | 2.25 | 0.51 µM | 40 mg/kg | 1.7 mg/kg | -0.41 | 0.21 µM | 0.78 µM |
| C[n+]1cccc2ccc(NC(=O)c3ccc(-c4ccc(-c5ccc(-c6ccc(C(=O)Nc7ccc8ccc[n+](C)c8c7)cc6)cc5)cc4)cc3)cc21.Cc1ccc(S(=O)(=O)[O-])cc1.Cc1ccc(S(=O)(=O)[O-])cc1 | 1.85 | 0.17 µM | 52 mg/kg | 20 mg/kg | -0.57 | 0.14 µM | 0.28 µM |
| C[n+]1ccc(Nc2ccc(NC(=O)c3ccc(Nc4c(-c5ccccc5)c[n+](C)c5ccc(N)cc45)cc3)cc2)cc1.[Br-].[Br-] | 1.78 | 0.39 µM | 22 mg/kg | 10 mg/kg | 0.65 | 0.15 µM | 0.63 µM |
| C/C(=N\NC(=N)N)c1ccc(NC(=O)c2ccc(C(=O)Nc3ccc(C(=O)Nc4ccc[n+](C)c4)cc3)cc2)cc1.Cc1ccc(S(=O)(=O)O)cc1.Cc1ccc(S(=O)(=O)[O-])cc1 | 1.93 | 0.46 µM | 20 mg/kg | 8.7 mg/kg | -0.53 | 0.3 µM | 0.52 µM |
| C[n+]1cccc(NC(=O)c2ccc(NC(=O)c3ccc(C(=O)Nc4ccc(C(=O)Nc5ccc[n+](C)c5)c(N)c4)cc3)cc2N)c1.Cc1ccc(S(=O)(=O)[O-])cc1.Cc1ccc(S(=O)(=O)[O-])cc1 | 2.35 | 0.26 µM | 44 mg/kg | 2.4 mg/kg | -0.75 | 0.12 µM | 0.39 µM |
| C[n+]1ccc(Nc2ccc(NC(=O)c3ccc(Nc4cc[n+](C)c5cc([N+](=O)[O-])ccc45)cc3)cc2)cc1.Cc1ccc(S(=O)(=O)[O-])cc1.Cc1ccc(S(=O)(=O)[O-])cc1 | 2.02 | 0.69 µM | 27 mg/kg | 3 mg/kg | 0.15 | 0.2 µM | 1.3 µM |
| COc1cc(C(=O)Nc2ccc[n+](C)c2)ccc1NC(=O)c1ccc(C(=O)Nc2ccc(C(=O)Nc3ccc[n+](C)c3)cc2OC)cc1.Cc1ccc(S(=O)(=O)[O-])cc1.Cc1ccc(S(=O)(=O)[O-])cc1 | 1.89 | 0.84 µM | 25 mg/kg | 13 mg/kg | -0.41 | 0.72 µM | 0.9 µM |
| C[n+]1cccc(-c2ccc(NC(=O)/C=C/c3ccc(C(=O)Nc4ccc(-c5ccc(-c6ccc(-c7ccc[n+](C)c7)cc6)cc5)cc4)cc3)cc2)c1.Cc1ccc(S(=O)(=O)[O-])cc1.Cc1ccc(S(=O)(=O)[O-])cc1 | 2.16 | 0.3 µM | 85 mg/kg | 26.9 mg/kg | -0.75 | 0.13 µM | 0.46 µM |
| C[n+]1ccc(-c2ccc(NC(=O)c3ccc(Nc4cc[n+](C)c5ccccc45)cc3)cc2)cc1.Cc1ccc(S(=O)(=O)[O-])cc1.Cc1ccc(S(=O)(=O)[O-])cc1 | 2.08 | 0.89 µM | 15 mg/kg | 2.2 mg/kg | 0.33 | 0.3 µM | 3 µM |
| C[n+]1ccc(Nc2ccc(NC(=O)c3ccc(-c4ccc(Nc5cc[n+](C)cc5)cc4)cc3)cc2)cc1.[I-].[I-] | 2.28 | 2.04 µM | 2.6 mg/kg | 0.6 mg/kg | 0.06 | 0.37 µM | 3.01 µM |
| C[n+]1ccc(Nc2ccc(/C=C/c3ccc(Nc4cc[n+](C)c5ccccc45)cc3)cc2)cc1.[Br-].[Br-] | 1.89 | 0.34 µM | 23 mg/kg | 12 mg/kg | 0.61 | 0.13 µM | 0.67 µM |
| CC[n+]1ccc(Nc2ccc(NC(=O)c3ccc(Nc4cc[n+](CC)c5ccccc45)cc3)cc2)cc1.[Br-].[Br-] | 2.07 | 2 µM | 15 mg/kg | 2.8 mg/kg | 0.54 | 0.19 µM | 3.1 µM |
| C/C(=N\NC(=N)N)c1ccc(NC(=O)c2ccc(Nc3cc[n+](C)c4cc(N)ccc34)cc2)cc1.Cc1ccc(S(=O)(=O)O)cc1.Cc1ccc(S(=O)(=O)[O-])cc1 | 2.2 | 0.53 µM | 31 mg/kg | 4 mg/kg | -0.36 | 0.19 µM | 1 µM |

Source: ChEMBL document CHEMBL3228010, “Potential antitumor agents. 29. Quantitative structure-activity relationships for the antileukemic bisquaternary ammonium heterocycles” (J Med Chem, 1979)
